Test results taken from patent US20100048533A1, “LESTAURTINIB CRYSTALLINE FORM 1, CRYSTALLINE LESTAURIMIB ANHYDRATE AND AMORPHOUS LESTAURIMIB” (ABBOTT LABORATORIES, priority 2005, published 2010).
In brackets after ≈: the same amount, converted by molar mass.

What was measured:
[1] = Thermogravimetric analysis (TGA) moisture / weight loss; type: physicochemical; details: for weight loss: TGA
Procedure: TGA data were obtained using a TA Instruments Model 3100 and 5200 Thermal Analysts with a Model 2950 Hi Res TGA module. TGA thermograms were acquired at a heating rate of 5° C. per minute, under nitrogen purge with a flow rate of about 40 mL per minute.

[2] = Solid-state stability of crystalline forms versus relative humidity; type: physicochemical; details: for RH above which the form converts to a higher hydrate: ambient temperature
[3] = Dynamic moisture sorption gravimetry (DMSG) (hygroscopicity); type: physicochemical
Procedure: Because moisture-mediated crystallization was not observed during RH levels between 5% and 10%, it was concluded that the solid at 5% RH was crystalline; and because the solid contained less than 0.5% water, it was also determined that it was an anhydrate.
Dynamic moisture sorption gravimetry (DMSG) (hygroscopicity) data were obtained on a VTI Corporation model MB 300 G sorption microbalance using vacuum to control RH. The automated system controlled the RH and temperature to which each sample was exposed, while continuously recording sample weight changes. Sorption and desorption isotherms were performed at 25±0.1° C. with 5±1% RH step intervals from 0-95% RH. Samples of about 15-30 mg were dried under vacuum for up to 3 hours (approximate RH=0-1% RH) before each experiment. The weight loss observed during the drying period was used to estimate how tightly each sample held onto water. After the drying period, sorption isotherms started at 5% RH. A critical weight equilibrium of less than […] weight change over three 5 minutes periods was used to move to the next step. […] Meaning that any water present in the sample was surface water and not lattice water.

[4] = Solubility in 200 proof ethanol by HPLC (saturated solutions, two-day slurry); details: slurried two days
Procedure: Solubility of Lestaurtinib Crystalline Form 1 and anhydrous lestaurtinib at 26° C. and 2-8° C. was determined using HPLC. Saturated solutions of the solid-state phase in ethanol (200 poof) were obtained by slurrying a sample in ethanol for two days at 26° C. and at 2-8° C. After slurrying, each solution was filtered through 0.45 μm micron filter and the level of CEP-701 was determined by HPLC.

[5] = Slurry of lestaurtinib forms in 200 proof ethanol for 48 hours, remaining form analyzed by PXRD; details: for Form After Mixing With Ethanol For 48 Hours: 200 proof ethanol, PXRD
Procedure: The forms of lestaurtinib remaining were analyzed by PXRD to determine if any crystal form conversion had occurred.

C[C@]12O[C@H](C[C@]1(O)CO)n1c3ccccc3c3c4c(c5c6ccccc6n2c5c31)CNC4=O [Amorphous, Amorphous Lestaurtinib]
weight loss ([1]; up to about 184° C.): 5.56%

C[C@]12O[C@H](C[C@]1(O)CO)n1c3ccccc3c3c4c(c5c6ccccc6n2c5c31)CNC4=O [Crystalline lestaurtinib anhydrate, Crystalline Lestaurtinib Anhydrate]
RH above which the form converts to a higher hydrate [2]: above 5 % RH
water content of solid-state phase ([3]; DMSG, 25° C., between 0% and 5% RH): less than 0.5%

C[C@]12O[C@H](C[C@]1(O)CO)n1c3ccccc3c3c4c(c5c6ccccc6n2c5c31)CNC4=O.O [Crystalline lestaurtinib monohydrate, crystalline lestaurtinib monohydrate]
RH above which the form converts to a higher hydrate [2]: above 40 % RH
factor by which ability to absorb water is reduced when ground ([2]; ground with mortar and pestle vs unground): about 6

CC12OC(CC1(O)CO)n1c3ccccc3c3c4c(c5c6ccccc6n2c5c31)C(=O)NC4 (stereo not shown) [Form I, Lestaurtinib Crystalline Form 1]
weight loss ([1]; up to about 100° C.): 0.04%
moisture ([1]; determined by TGA): less than 0.05%
Solubility ([4]; 2-8° C.): 2380 µg/mL (≈ 5.42 mM)
Solubility ([4]; 26° C.): 2600 µg/mL (≈ 5.92 mM)
solid state conversion ([2]; regardless of temperature or relative humidity): not known to undergo solid state conversion
hygroscopicity [3]: non-hygroscopic
nominal moisture uptake ([3]; DMSG, 25° C.): about 0.2 % (w/w)
moisture uptake ([3]; DMSG, 25° C., 0-95% RH): up to 0.4%
equilibrium moisture content (EMC) ([3]; DMSG, at moisture uptake up to about 0.4%): about 0.1 mole water per mole drug
equilibrium moisture content (EMC) ([3]; DMSG, at nominal moisture uptake of about 0.2%): about 0.05 mole water per mole drug
Form After Mixing With Ethanol For 48 Hours ([5]; 2-8° C.): 1
Form After Mixing With Ethanol For 48 Hours ([5]; 26° C.): 1
relative stability of crystalline form ([5]; ambient temperature and 2-8° C.): most stable crystalline form of lestaurtinib

CC#N.CC12OC(CC1(O)CO)n1c3ccccc3c3c4c(c5c6ccccc6n2c5c31)C(=O)NC4.CC12OC(CC1(O)CO)n1c3ccccc3c3c4c(c5c6ccccc6n2c5c31)C(=O)NC4.O (stereo not shown) [hemi: hydrate/acetonitrileate, Crystalline Lestaurtinib Hemihydrate Hemiacetonitrileate]
Form After Mixing With Ethanol For 48 Hours ([5]; 2-8° C.): 1
Form After Mixing With Ethanol For 48 Hours ([5]; 26° C.): 1

C[C@]12O[C@H](C[C@]1(O)CO)n1c3ccccc3c3c4c(c5c6ccccc6n2c5c31)CNC4=O [hydrated, Crystalline Hydrated Lestaurtinib]
Form After Mixing With Ethanol For 48 Hours ([5]; 2-8° C.): 1
Form After Mixing With Ethanol For 48 Hours ([5]; 26° C.): 1
